Results as given in patent US12655116B2, “Substituted isophthalic acid diamides” (Bayer Aktiengesellschaft, priority 2020, dated 2026).

Legend:
ABUTH [1] = assay: Pre-emergence herbicidal action against ABUTH; format: in vivo, Abutilon theophrasti
Procedure, shortened: (§1)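 Herbicidal effect was assessed 3 weeks after treatment by visual comparison with untreated controls, 100% denoting dead plants. Aqueous WP or EC preparations had been applied at 600 to 800 l/ha with 0.2% wetting agent to the soil covering freshly sown seeds.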

ALOMY = assay: Pre-emergence herbicidal action against ALOMY; format: in vivo, Alopecurus myosuroides; conditions: pre-emergence
Procedure, shortened: as §1

AMARE [2] = assay: Pre-emergence herbicidal action against AMARE; format: in vivo, Amaranthus retroflexus
Procedure, shortened: as §1

AVEFA = assay: Pre-emergence herbicidal action against AVEFA; format: in vivo, Avena fatua; conditions: 80 g/ha, pre-emergence
Procedure, shortened: as §1

ECHCG [3] = assay: Pre-emergence herbicidal action against ECHCG; format: in vivo, Echinochloa crus-galli
Procedure, shortened: as §1

LOLRI = assay: Pre-emergence herbicidal action against LOLRI; format: in vivo, Lolium rigidum; conditions: 80 g/ha
Procedure, shortened: as §1

MATIN [4] = assay: Pre-emergence herbicidal action against MATIN; format: in vivo, Matricaria inodora
Procedure, shortened: as §1

PHBPU [5] = assay: Pre-emergence herbicidal action against PHBPU; format: in vivo, Pharbitis purpurea
Procedure, shortened: as §1

POLCO = assay: Pre-emergence herbicidal action against POLCO; format: in vivo, Polygonum convolvulus
Procedure, shortened: as §1

SETVI [6] = assay: Pre-emergence herbicidal action against SETVI; format: in vivo, Setaria viridis
Procedure, shortened: as §1

VERPE [7] = assay: Pre-emergence herbicidal action against VERPE; format: in vivo, Veronica persica; conditions: dosage 80 g/ha
Procedure, shortened: as §1

VIOTR [8] = assay: Pre-emergence herbicidal action against VIOTR; format: in vivo, Viola tricolor
Procedure, shortened: as §1

DIGSA [9] = assay: Pre-emergence herbicidal action against DIGSA; format: in vivo, Digitaria sanguinalis
Procedure, shortened: as §1

ABUTH [10] = assay: Post-emergence herbicidal action against ABUTH; format: in vivo, Abutilon theophrasti; conditions: visual assessment about 3 weeks after treatment vs untreated controls
Procedure, shortened: (§2)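 Herbicidal effect was scored visually in percent after about 3 weeks in the greenhouse. Plants had been raised in sandy loam and treated post-emergence at the one-leaf stage with formulated compound at 600 to 800 l/ha water plus 0.2% wetting agent.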

AMARE [11] = assay: Post-emergence herbicidal action against AMARE; format: in vivo, Amaranthus retroflexus; conditions: 20 g/ha, visual assessment about 3 weeks after treatment, 100% = plants have died, 0% = like control plants
Procedure, shortened: as §2

ECHCG [12] = assay: Post-emergence herbicidal action against ECHCG; format: in vivo, Echinochloa crus-galli; conditions: dosage 20 g/ha
Procedure, shortened: as §2

MATIN [13] = assay: Post-emergence herbicidal action against MATIN; format: in vivo, Matricaria inodora; conditions: dosage 20 g/ha
Procedure, shortened: as §2

PHBPU [14] = assay: Post-emergence herbicidal action against PHBPU; format: in vivo, Pharbitis purpurea
Procedure, shortened: as §2

SETVI [15] = assay: Post-emergence herbicidal action against SETVI; format: in vivo, Setaria viridis
Procedure, shortened: as §2

VERPE [16] = assay: Post-emergence herbicidal action against VERPE; format: in vivo, Veronica persica
Procedure, shortened: as §2

VIOTR [17] = assay: Post-emergence herbicidal action against VIOTR; format: in vivo, Viola tricolor
Procedure, shortened: as §2

DIGSA [18] = assay: Post-emergence herbicidal action against DIGSA; format: in vivo, Digitaria sanguinalis
Procedure, shortened: as §2

[19] = 80 g/ha, scored visually after 3 weeks vs untreated controls (100% = plants have died, 0% = like control plants)

Cn1nnnc1NC(=O)c1ccc(C(F)(F)F)c(C(=O)NCC2CC2)c1C1CC1 [Example 1-289]
Pre-emergence action against ABUTH (herbicidal activity) (ABUTH [1]; [19]): 100% | Pre-emergence action against ABUTH (herbicidal activity in percent) (ABUTH [1]; dosage 20 g/ha, scored visually after 3 weeks vs untreated controls, 100% = plants have died, 0% = like control plants): 100% | Pre-emergence action against ALOMY (herbicidal activity) (ALOMY; [19]): 90% | Pre-emergence action against AMARE in % (AMARE [2]; 20 g/ha, scored visually after 3 weeks vs untreated controls, 100% = plants have died, 0% = like control plants): 90% | Pre-emergence action against AMARE in % (AMARE [2]; [19]): 100% | Pre-emergence action against AVEFA in % (AVEFA): 80% | Pre-emergence action against ECHCG in % (ECHCG [3]; 20 g/ha): 80% | Pre-emergence action against ECHCG in % (ECHCG [3]; 80 g/ha): 100% | Pre-emergence action against LOLRI in % (LOLRI): 80% | Pre-emergence action against MATIN in % (MATIN [4]; dosage 20 g/ha): 90% | Pre-emergence action against MATIN in % (MATIN [4]; dosage 80 g/ha): 100% | Pre-emergence action against PHBPU in % (PHBPU [5]; dosage 80 g/ha): 80% | Pre-emergence action against POLCO in % (POLCO; dosage 80 g/ha): 80% | Pre-emergence action against SETVI in % (SETVI [6]; dosage 80 g/ha): 80% | Pre-emergence action against VERPE in % (VERPE [7]): 100% | Pre-emergence action against VIOTR in % (VIOTR [8]; dosage 20 g/ha): 100% | Pre-emergence action against VIOTR in % (VIOTR [8]; dosage 80 g/ha): 100% | Pre-emergence action against DIGSA in % (DIGSA [9]; dosage 20 g/ha): 100% | Pre-emergence action against DIGSA in % (DIGSA [9]; dosage 80 g/ha): 100% | Post-emergence action against ABUTH in % (ABUTH [10]; dosage 5 g/ha): 80% | Post-emergence action against ABUTH in % (ABUTH [10]; dosage 20 g/ha): 80% | Post-emergence action at 20 g/ha against AMARE in % (AMARE [11]): 90% | Post-emergence action against ECHCG in % (ECHCG [12]): 80% | Post-emergence action against MATIN in % (MATIN [13]): 80% | Post-emergence action against PHBPU in % (PHBPU [14]; dosage 5 g/ha): 80% | Post-emergence action against PHBPU in % (PHBPU [14]; dosage 20 g/ha): 90% | Post-emergence action against SETVI in % (SETVI [15]; dosage 5 g/ha): 80% | Post-emergence action against SETVI in % (SETVI [15]; dosage 20 g/ha): 90% | Post-emergence action against VERPE in % (VERPE [16]; 5 g/ha): 80% | Post-emergence action against VERPE in % (VERPE [16]; 20 g/ha): 90% | Post-emergence action against VIOTR in % (VIOTR [17]; 5 g/ha): 80% | Post-emergence action against VIOTR in % (VIOTR [17]; 20 g/ha): 90% | Post-emergence action against DIGSA in % (DIGSA [18]; 5 g/ha): 90% | Post-emergence action against DIGSA (DIGSA [18]; 20 g/ha): 90%

CCc1c(C(=O)Nc2nnnn2CC)ccc(C(F)F)c1C(=O)NC1CC1 [Example 2-279]
pest or weed control at 80 g/ha (ABUTH [1]; Abutilon theophrasti, 504 h, 80 g/ha, scored visually after 3 weeks vs untreated controls (100% = plants have died, 0% = like control plants)): 100% | pest or weed control at 20 g/ha (ABUTH [1]; Abutilon theophrasti, 504 h, dosage 20 g/ha, scored visually after 3 weeks vs untreated controls, 100% = plants have died, 0% = like control plants, read-out: Pre-emergence action against ABUTH (herbicidal activity in percent)): 80% | pest or weed control at 80 g/ha (ALOMY; Alopecurus myosuroides, 504 h, 80 g/ha, scored visually after 3 weeks vs untreated controls (100% = plants have died, 0% = like control plants)): 90% | pest or weed control at 20 g/ha (ALOMY; Alopecurus myosuroides, 504 h, 20 g/ha, scored visually after 3 weeks, 100% = plants have died, 0% = like control plants): 80% | pest or weed control at 20 g/ha (AMARE [2]; Amaranthus retroflexus, 504 h, 20 g/ha, scored visually after 3 weeks vs untreated controls, 100% = plants have died, 0% = like control plants): 100% | pest or weed control at 80 g/ha (AMARE [2]; Amaranthus retroflexus, 504 h, 80 g/ha, scored visually after 3 weeks vs untreated controls, 100% = plants have died, 0% = like control plants): 100% | pest or weed control at 80 g/ha (AVEFA; Avena fatua, 504 h): 100% | pest or weed control at 80 g/ha (ECHCG [3]; Echinochloa crus-galli, 504 h, 80 g/ha): 100% | pest or weed control at 80 g/ha (LOLRI; Lolium rigidum, 504 h): 80% | pest or weed control at 20 g/ha (MATIN [4]; Tripleurospermum inodorum, 504 h, dosage 20 g/ha): 90% | pest or weed control at 80 g/ha (MATIN [4]; Tripleurospermum inodorum, 504 h, dosage 80 g/ha): 100% | pest or weed control at 20 g/ha (PHBPU [5]; Ipomoea purpurea, 504 h, dosage 20 g/ha): 80% | pest or weed control at 80 g/ha (PHBPU [5]; Ipomoea purpurea, 504 h, dosage 80 g/ha): 90% | pest or weed control at 20 g/ha (POLCO; Fallopia convolvulus, 504 h, dosage 20 g/ha): 80% | pest or weed control at 80 g/ha (POLCO; Fallopia convolvulus, 504 h, dosage 80 g/ha): 90% | pest or weed control at 20 g/ha (SETVI [6]; Setaria viridis, 504 h, dosage 20 g/ha): 80% | pest or weed control at 80 g/ha (SETVI [6]; Setaria viridis, 504 h, dosage 80 g/ha): 100% | pest or weed control at 80 g/ha (VERPE [7]; Veronica persica, 504 h): 90% | pest or weed control at 20 g/ha (VIOTR [8]; Viola tricolor, 504 h, dosage 20 g/ha): 100% | pest or weed control at 80 g/ha (VIOTR [8]; Viola tricolor, 504 h, dosage 80 g/ha): 100% | pest or weed control at 20 g/ha (DIGSA [9]; Digitaria sanguinalis, 504 h, dosage 20 g/ha): 90% | pest or weed control at 80 g/ha (DIGSA [9]; Digitaria sanguinalis, 504 h, dosage 80 g/ha): 100% | pest or weed control at 20 g/ha (ABUTH [10]; Abutilon theophrasti, 504 h, dosage 20 g/ha): 80% | pest or weed control at 20 g/ha (AMARE [11]; Amaranthus retroflexus, 504 h): 100% | pest or weed control at 20 g/ha (ECHCG [12]; Echinochloa crus-galli, 504 h): 90% | pest or weed control at 20 g/ha (MATIN [13]; Tripleurospermum inodorum, 504 h): 80% | pest or weed control at 20 g/ha (VERPE [16]; Veronica persica, 504 h, 20 g/ha): 90% | pest or weed control at 5 g/ha (VIOTR [17]; Viola tricolor, 504 h, 5 g/ha): 80% | pest or weed control at 20 g/ha (VIOTR [17]; Viola tricolor, 504 h, 20 g/ha): 90% | pest or weed control at 5 g/ha (DIGSA [18]; Digitaria sanguinalis, 504 h, 5 g/ha): 90% | pest or weed control at 20 g/ha (DIGSA [18]; Digitaria sanguinalis, 504 h, 20 g/ha): 90%
